Data taken from ChEMBL document CHEMBL3430912, “GSK Tres Cantos Anti-Kinetoplastid Screening (TCAKS) Data”.

Key:
Trypanosoma cruzi [1] = assay: GSK_TCAKS: pIC50 Trypanosoma cruzi viability assay using beta-GAL activity. This assay was run at single shot at 5uM compound concentration per well. The biological reagents consisted of NIH-3T3 host cells and trypomastigotes parasitic cells; both cell types were set to a 3.3 * 10^5 cells/mL dilution in assay DMEM by means of a CASY cell counter device using a 60um capillary. 6 uL of the mixture were dispensed per well (about 1 * 10^3 host-cells and 1 * 10^3 parasites) with a Multidrop Combi dispenser. […] In all wells, the percentage of DMSO never exceeded 0.5%. Plates incubated for four days at 37C, 5% CO2. The substrate used for the assay fluorescence intensity (FLINT) readout was resorufin-beta-D-galactopiranoside (Sigma-Aldrich) at 5uM per well. It was diluted in PBS supplemented with the soft detergent Igepal (Fluka).; type: functional, organism-based, Mus musculus; settings: Tulahuen, NIH3T3
Trypanosoma cruzi [2] = assay: (§1) GSK_TCAKS: pIC50 Trypanosoma cruzi Imaging: Infected Cells. […] Cells were then washed once with PBS before infection. T. cruzi trypomastigotes, collected at days 5 to 8 after infection from LLC-MK2 parasite infected cultures, were allowed to swim out for 4h at 37C from a centrifuged pellet (2,500 rpm/10 min/room temperature). Trypomastigotes were then collected and counted in a CASY Cell Counter. Trypomastigotes, in supplemented DMEM, were added to H9c2 cultures in a multiplicity of infection of 1 and incubated for 18 h. Cells were washed once with PBS before incubation of the infected H9c2 monolayer with trypsin (Life-Technologies) to detach cells from the flask. Cells were counted in a CASY Cell Counter using a 150 um capillary and their density set at 5 * 10^4 cells per mL in supplemented assay DMEM. Infected H9c2 were dispensed into 384-well poly-lysine coated assay plates at 50uL per well using a Multidrop Combi dispenser. After seeding them, the plates were incubated at 37C, 5% CO2 for 72h. Cultures were then fixed and stained by addition of 50 uL of a solution containing 8% formaldehyde and 4 uM DRAQ5 DNA dye (BioStatus, UK) per well. […] Five images were collected per well for reliable statistical analysis. Automated image analysis was performed with a script developed on Acapella High Content Imaging and Analysis Software (PerkinElmer). Output: percentage of infected cells per well as a second infection marker.; type: functional, organism-based, Rattus norvegicus; settings: H9c2, 4 h
Trypanosoma cruzi [3] = assay: GSK_TCAKS: pIC50 Trypanosoma cruzi Imaging: Amastigotes/Cell. […] Cells were then washed once with PBS before infection. T. cruzi trypomastigotes, collected at days 5 to 8 after infection from LLC-MK2 parasite infected cultures, were allowed to swim out for 4h at 37C from a centrifuged pellet (2,500 rpm/10 min/room temperature). Trypomastigotes were then collected and counted in a CASY Cell Counter. Trypomastigotes, in supplemented DMEM, were added to H9c2 cultures in a multiplicity of infection of 1 and incubated for 18 h. Cells were washed once with PBS before incubation of the infected H9c2 monolayer with trypsin (Life-Technologies) to detach cells from the flask. Cells were counted in a CASY Cell Counter using a 150 um capillary and their density set at 5 * 10^4 cells per mL in supplemented assay DMEM. Infected H9c2 were dispensed into 384-well poly-lysine coated assay plates at 50uL per well using a Multidrop Combi dispenser. After seeding them, the plates were incubated at 37C, 5% CO2 for 72h. Cultures were then fixed and stained by addition of 50 uL of a solution containing 8% formaldehyde and 4 uM DRAQ5 DNA dye (BioStatus, UK) per well. […] Five images were collected per well for reliable statistical analysis. Automated image analysis was performed with a script developed on Acapella High Content Imaging and Analysis Software (PerkinElmer). Output: number of amastigotes per cell as infection level measurement.; type: functional, organism-based, Rattus norvegicus; settings: H9c2, 4 h
Trypanosoma cruzi [4] = assay: as §1, with “H2C9” for “Trypanosoma cruzi”, “H9c2 Host Cardiomyocytes.” for “Infected Cells.”, “Number” for “percentage”, “H9c2 Host Cardiomyocytes nuclei to determine drug-related cytotoxicity.” for “infected cells per well as a second infection marker.”; type: functional, organism-based, Rattus norvegicus; settings: H9c2, 4 h
Leishmania donovani [5] = assay: GSK_TCAKS: pIC50 Leishmania donovani viability assay using fluorescence intensity. Assay plates (1536-well) were prepared by adding 30nL per well of compound. For single shot assay, the final compound concentration was 5uM. […] Briefly, eGFP LdBOB axenic amastigotes were harvested, fixed and counted in a CASY cell counter (Roche-Applied Science). A final concentration of 1.5 * 10^5 cells per well were prepared in amastigote media containing 500 U/mL penicillin/streptomycin (Invitrogen) and 6uL was dispensed to each experimental well using a Multidrop Combi dispenser (Thermo Scientific). 6uL of assay media was dispensed to control columns used as reference for 100% compound response. Following incubation for 72 h at 37C, 5% CO2, 2 uL of resazurin was added to each well at a final concentration of 0.5 mM in phosphate buffered saline (PBS) with IGEPAL (Sigma-Aldrich), 0.05% (v/v).; type: functional, organism-based
Leishmania donovani [6] = assay: (§2) GSK_TCAKS: pIC50 Leishmania donovani Imaging: Infected Macrophages. Assay plates (384-well) were prepared by adding 250nL of compound to each well. For single shot assay, the final compound concentration was 5 uM. […] Automated image analysis was performed with a script developed on Acapella High Content Imaging and Analysis Software (PerkinElmer). Output: Percent of infected macrophage cells were reported for each well.; type: functional, organism-based, Homo sapiens; settings: THP-1
Leishmania donovani [7] = assay: as §2, with “Amastigotes/Macrophages.” for “Infected Macrophages.”, “Average number” for “Percent”, “amastigotes per” for “infected”, “cell” for “cells”; type: functional, organism-based, Homo sapiens; settings: THP-1
Leishmania donovani [8] = assay: as §2, with “THP-1 Host” for “Infected”, “THP-1 cell count” for “Percent of infected macrophage cells”; type: functional, organism-based, Homo sapiens
[9] = tested on: Trypanosoma brucei brucei; assay: GSK_TCAKS: pIC50 Trypanosoma brucei viability assay using fluorescence intensity. Assay plates (1536-well) were prepared by dispensing 25nL of compound solution per well using an Echo acoustic dispenser (Labcyte).; type: functional, organism-based; settings: Lister 427, 2 h
[10] = tested on: Trypanosoma brucei brucei; assay: GSK_TCAKS: pIC50 Trypanosoma brucei viability assay using luminiscence. Assay plates (1536-well) were prepared. T. brucei cultures were harvested and counted in a CASY cell counter. A parasite suspension was prepared at a final concentration of 5 * 10^4 cells/mL in complete HMI9 medium and 6uL was dispensed to all wells containing compounds using a Multidrop Combi dispenser. 6uL of HMI9 media with 0.4% DMSO were dispensed to control columns. Plates were incubated for 24 h at 37C, 5% CO2 then tempered for 10 min at room temperature. ATP content was quantified by adding 4 uL of CellTiter-Glo Reagent (Promega) according to the manufacturer's instructions. Luminescence was measured using a ViewLux.; type: functional, organism-based; settings: Lister 427, CASY
[11] = GSK_TCAKS: pIC50 HepG2 human cell line viability assay using luminiscence. […] Seeding density was checked to ensure that new mono-layers were not more than 50% confluent at the time of harvesting. Cell suspension was added to 500 mL of the same medium at a final density of 1.2 * 10^5 cells/mL. This cell suspension was dispensed (25 uL, 3000 cells per well) into 384-well clear-bottom plates using a Multidrop Combi dispenser. Prior to addition of the cell suspension, the screening compounds (250 nL) were pre-dispensed into the plates with an Echo liquid handler. Plates were incubated for 48 h at 37C, 5% CO2. After incubation, plates equilibrated at room temperature for 30 min before proceeding to develop the luminescent signal. The signal developer, CellTiter-Glo Reagent, was allowed to equilibrate at room temperature for 30 min and added to the plates (25uL per well) using a Multidrop Combi dispenser. Plates were left for 10 min at room temperature for stabilization and then read using a ViewLux.; type: toxicity, cell-based
[12] = molecular target: Sterol 14-alpha demethylase (Trypanosoma cruzi (strain CL Brener), UniProt Q7Z1V1); assay: GSK_TCAKS: pIC50 CYP51 from Trypanosoma cruzi.; type: functional
Sequence of Sterol 14-alpha demethylase (Q7Z1V1 whole entry): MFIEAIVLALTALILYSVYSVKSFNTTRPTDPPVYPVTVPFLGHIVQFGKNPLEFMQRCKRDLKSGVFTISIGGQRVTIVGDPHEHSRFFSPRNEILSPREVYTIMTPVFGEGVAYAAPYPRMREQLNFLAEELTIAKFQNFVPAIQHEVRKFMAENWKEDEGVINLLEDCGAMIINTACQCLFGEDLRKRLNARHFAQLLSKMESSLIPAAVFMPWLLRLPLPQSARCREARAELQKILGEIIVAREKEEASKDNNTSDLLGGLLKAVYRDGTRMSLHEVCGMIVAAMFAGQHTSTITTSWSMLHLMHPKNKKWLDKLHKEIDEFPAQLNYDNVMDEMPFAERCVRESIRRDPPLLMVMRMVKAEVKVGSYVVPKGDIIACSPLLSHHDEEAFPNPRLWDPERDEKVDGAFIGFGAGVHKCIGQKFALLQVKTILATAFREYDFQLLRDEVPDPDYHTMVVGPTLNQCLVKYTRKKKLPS

SMILES | IC50 (Trypanosoma cruzi [1]) [nM] | IC50 (Trypanosoma cruzi [2]) [nM] | IC50 (Trypanosoma cruzi [3]) [nM] | IC50 (Trypanosoma cruzi [4]) [nM] | IC50 (Leishmania donovani [5]) [nM] | IC50 (Leishmania donovani [6]) [nM] | IC50 (Leishmania donovani [7]) [nM] | IC50 (Leishmania donovani [8]) [nM] | IC50 [9] [nM] | IC50 [10] [nM] | IC50 at 48 h [11] [nM] | IC50 [12] [nM]
Cc1ncsc1CNc1cnc(-c2ccc3c(c2)OCCO3)c(-c2cnn(C)c2)c1 | 12600 | 39800 | 20000 | > 50100 | 25100 | 15800 | 12600 | 15800 | 126 | 200 | > 100000 | 7940
Cc1cc(Nc2cc(C3CC3)[nH]n2)nc(N2CCCC2)n1 | 79.4 | 100 | 79.4 | 251 | 794 | 158 | 50.1 | 126 | 50.1 | 63.1 | 31600 | > 100000
Cc1cc(Nc2cc(C3CC3)[nH]n2)nc(N2CCC[C@H]2C(N)=O)n1 | 126 | 63.1 | 20 | 126 | 631 | 200 | 79.4 | 126 | 12.6 | 63.1 | > 100000 | > 100000
CS(=O)(=O)N1CCC(Nc2ncc(Br)c(Nc3cccc(F)c3C(N)=O)n2)CC1 | 316 | 1000 | 398 | 158 | 100 | 1580 | 794 | 1000 | 10 | 15.8 | > 100000 | > 100000
NC(=O)c1cc(F)ccc1Nc1nc(N[C@H]2CC[C@H](O)CC2)ncc1Br | 2510 | 2000 | 794 | 501 | 1580 | 794 | 631 | 398 | 79.4 | 316 | 50100 | 10000
O=C(c1cccc(Nc2ncc(-c3ccc4c(c3)OCO4)cn2)c1)N1CCSC1 | 2510 | 251 | 200 | 1000 | 1260 | 2000 | 1000 | 12600 | 12600 | > 39800 | 10000 | 15800
NC(=O)c1cc(F)ccc1Nc1nc(N[C@H]2CC[C@H](O)CC2)ncc1Cl | 3980 | 5010 | 1580 | 1580 | 3160 | 1260 | 794 | 631 | 158 | 631 | > 100000 | 31600
COc1ccc(Nc2nc(N[C@H]3CC[C@H](O)CC3)ncc2Br)c(C(N)=O)c1 | 3980 | 3160 | 2000 | 794 | 3160 | 1000 | 631 | 398 | 100 | 251 | > 100000 | 12600
COc1ccc(OC)c(S(=O)(=O)N(Cc2c(F)cccc2F)[C@@H]2CCN(C#N)C2)c1 | 6310 | 12600 | 6310 | 15800 | 15800 | 25100 | 20000 | 20000 | 631 | 794 | 79400 | > 100000
COc1ccc2ncc(=O)n(CCN3CC[C@H](NCc4ncc(Cl)c5[nH]ncc45)[C@H](O)C3)c2n1 | 3980 | 3160 | 1580 | > 50100 | > 50100 | > 50100 | > 50100 | > 50100 | 316 | 501 | > 100000 | > 100000
NC(=O)c1ncccc1Nc1nc(N[C@H]2CC[C@H](O)CC2)ncc1Br | 1580 | 2000 | 501 | 631 | 1260 | 1260 | 631 | 398 | 316 | 631 | > 100000 | > 100000
CCc1cc(C(=O)Nc2nccn2-c2ccccc2)cs1 | 3160 | 5010 | 3160 | 20000 | 6310 | 12600 | 5010 | 31600 | 3160 | 3980 | > 100000 | > 100000
CC(C)c1cc(Nc2cc(Cc3ccccc3)nc(N[C@H]3CC[C@H](O)CC3)n2)n[nH]1 | 79.4 | 79.4 | 31.6 | 6.31 | 3160 | 63.1 | 39.8 | 20 | 79.4 | 100 | 31600 | 20000
CS(=O)(=O)N[C@H]1CC[C@H](Nc2ncc(Br)c(Nc3ccccc3C(N)=O)n2)CC1 | 7940 | 5010 | 2000 | 501 | 1000 | 2000 | 794 | 501 | 158 | 79.4 | > 100000 | > 100000
O=C1NCc2cccc(Nc3nc(N[C@H]4CC[C@H](O)CC4)ncc3Br)c21 | 631 | 1000 | 398 | 100 | 794 | 158 | 126 | 100 | 63.1 | 126 | > 100000 | > 100000
NS(=O)(=O)c1ccc(Nc2ncc3cccc(OC4CCNCC4)c3n2)cc1 | 1780 | 50.1 | 20 | 631 | 39800 | 20000 | 15800 | 1000 | 200 | 316 | > 100000 | > 100000
COc1ccc2ncc(=O)n(CCN3CCC(NCc4ccc(-c5cccs5)cc4)CC3)c2n1 | 2000 | 1580 | 158 | 7940 | 1580 | 3160 | 1260 | 10000 | 3160 | 6310 | 12600 | 25100
